Data on three substances can be found in patent US11448643B2, “Methods to specifically profile protease activity at lymph nodes” (Massachusetts Institute of Technology, priority 2016, dated 2022).

Square brackets hold non-standard residues; d marks the D form. Ends that are not written are not given here. Pip = O=C(O)[C@@H]1CCCCN1

Assay [1] relates to homogenized lymph nodes from vaccinated mice. The assay is described as follows: Ex vivo peptide screen: cleavage of fluorogenic protease substrates by homogenized lymph nodes from vaccinated vs control mice. Format: biochemical. The settings on record: 58 fluorogenic substrates; 384 well plates; fluorescence over several hours; FIG. 7. As for the experimental part:
Substrate cleavage of 58 peptides was measured. Signal reported is the fold difference in cleavage between vaccinated mice and PBS-injected mice.
Mice were vaccinated in the same manner as described above. Lymph nodes from vaccinated or non-vaccinated mice were harvested. The harvested lymph nodes were homogenized and added to the 58 fluorogenic protease substrates (SEQ ID NOs: 2-59) in 384 well plates. Fluorescent signal was monitored over the period of several hours for each substrate in the well plates. Fluorescence of reporter molecules in lymph nodes of vaccinated mice was compared to non-vaccinated mice (injected with PBS) and reported as the fold difference in cleavage of each substrate between vaccinated and control mice. […] The substrate used urinary monitoring experiment described above is referred to as Q7 (PLGVRGK; SEQ ID NO: 76).

For assay [2], the system named is metalloproteases in the LN. The settings on record: mice vaccinated with amph-EGP plus lipo-CpG and boosted; urine collected 3 hours after injection; ELISA; FIG. 6.
Protocol: Mice were injected subcutaneously and urine for analysis was collected 3 h post-administration.
Mice were later boosted to engage both innate and adaptive immunity. Subsequently, mice were administered a LN-targeting pro-diagnostic reagent comprising a LN-specific enzyme susceptible domain (e.g., protease substrate). Cleavage of the pro-diagnostic reagent by metalloproteases in the LN results in production of signature molecules (ligand encoded tags) that are released into the urine of the subject (e.g., mouse). Urine was collected from the mice 3 hours after injection. Reporter signal was quantified by ELISA.

For “f(Pip)KSGGG ([dF][Pip]KSGGG; also: fluorogenic labels) [Q10, fluorogenic protease substrate, f is D-Phe, Pip is pipecolic acid]”, the “rank of substrate cleavage (fold difference vaccinated vs control mice)” value in assay [1] was “two highest cleaved substrates”. For the substance “Albumin-GPLGVRGKGK(Biotin)eGvndneeGffsarK(FAM) [Albumin-B7]”, the “urinary reporter signal in vaccinated mice compared to PBS-injected mice” value in assay [2] is given as “significantly increased”. With “GGVPRG (also: fluorogenic labels) [PQ12]”, the “rank of substrate cleavage (fold difference vaccinated vs control mice)” value in assay [1] is “two highest cleaved substrates”.
